Measurements reported in patent publication US20080090896A1, “Strontium-Based Treatment Of Otosclerosis” (priority 2006, published 2008).

Tested on: hearing loss associated with otosclerosis
Conditions: hearing loss patients; 2 mg strontium ranelate daily for 6 months; symptoms measured monthly
Description: Hearing Loss. Hearing loss patients generally experience progressive loss of hearing.
The following populations having the symptom stated are treated with a dosing schedule of 2 mg strontium ranelate daily for 6 months.
All symptoms will be measured monthly. All improvements will be recorded and assessed.

Compound: N#Cc1c(N(CC(=O)[O-])CC(=O)[O-])sc(C(=O)[O-])c1CC(=O)[O-].[Sr+2].[Sr+2] [strontium ranelate]
- hearing (gains or cessation of the progression of hearing loss): some hearing gains
